Measurements taken from the CheMixHub drug solubility set.

Test: xn = mol fraction of the nth substance listed, in the solute-free solvent

O=C(O)c1cc([N+](=O)[O-])ccc1O + CN(C)C=O + O
solubility (g/100 g solution)
Settings | 278.15 K | 283.15 K | 288.15 K | 293.15 K | 298.15 K | 303.15 K | 308.15 K | 313.15 K | 318.15 K | 323.15 K
x2 = 0.02666 | 0.182 | 0.224 | 0.277 | 0.352 | 0.437 | 0.534 | 0.645 | 0.775 | 0.924 | 1.1
x2 = 0.05806 | 0.538 | 0.682 | 0.832 | 1 | 1.26 | 1.54 | 1.85 | 2.17 | 2.56 | 3.01
x2 = 0.09556 | 1.2 | 1.45 | 1.81 | 2.17 | 2.65 | 3.12 | 3.74 | 4.38 | 5.16 | 6.11
x2 = 0.1412 | 2.33 | 2.71 | 3.27 | 3.93 | 4.66 | 5.53 | 6.45 | 7.43 | 8.54 | 9.8
x2 = 0.1978 | 3.78 | 4.51 | 5.41 | 6.42 | 7.5 | 8.84 | 10.3 | 11.9 | 13.5 | 15.4
x2 = 0.27 | 6.74 | 7.37 | 8.61 | 10.2 | 11.7 | 13.4 | 15.2 | 17.2 | 19.3 | 21.5
x2 = 0.3652 | 10.9 | 11.7 | 12.9 | 14.8 | 16.9 | 19 | 21.2 | 23.5 | 26.2 | 29.4
x2 = 0.4965 | 14.7 | 15.3 | 16.7 | 19.3 | 21.5 | 24 | 26.1 | 29.3 | 32.3 | 35.7
x2 = 0.6893 | 16.7 | 17.7 | 19.4 | 21.5 | 23.8 | 26.6 | 29 | 31.8 | 35.4 | 38.8

O=C(O)C1CSCN1 (stereo unspecified) + O + CC#N
solubility (g/100 g solution)
Settings | x2 = 0.1 | x2 = 0.2 | x2 = 0.3 | x2 = 0.4 | x2 = 0.5 | x2 = 0.6 | x2 = 0.7 | x2 = 0.8 | x2 = 0.9
283.15 K | 0.0141 | 0.0241 | 0.0323 | 0.084 | 0.183 | 0.365 | 0.573 | 0.965 | 1.4
293.15 K | 0.0189 | 0.0303 | 0.0491 | 0.106 | 0.242 | 0.433 | 0.729 | 1.24 | 1.89
303.15 K | 0.0244 | 0.0416 | 0.0643 | 0.129 | 0.312 | 0.533 | 0.901 | 1.58 | 2.4
313.15 K | 0.0292 | 0.0548 | 0.0787 | 0.159 | 0.392 | 0.679 | 1.17 | 2.04 | 3.06
323.15 K | 0.0343 | 0.0734 | 0.0978 | 0.192 | 0.492 | 0.805 | 1.52 | 2.62 | 3.94

Nc1cncc(Cl)n1 + CCO + O
solubility (g/100 g solution)
Settings | 278.15 K | 283.15 K | 288.15 K | 293.15 K | 298.15 K | 303.15 K | 308.15 K | 313.15 K | 318.15 K | 323.15 K
x2 = 0.04165 | 0.0437 | 0.053 | 0.0624 | 0.075 | 0.0883 | 0.106 | 0.124 | 0.145 | 0.168 | 0.197
x2 = 0.08908 | 0.071 | 0.0856 | 0.101 | 0.12 | 0.141 | 0.17 | 0.198 | 0.23 | 0.267 | 0.313
x2 = 0.1436 | 0.11 | 0.132 | 0.155 | 0.185 | 0.217 | 0.259 | 0.302 | 0.35 | 0.405 | 0.476
x2 = 0.2068 | 0.161 | 0.193 | 0.226 | 0.27 | 0.316 | 0.376 | 0.438 | 0.508 | 0.588 | 0.691
x2 = 0.2812 | 0.21 | 0.253 | 0.299 | 0.358 | 0.419 | 0.501 | 0.589 | 0.681 | 0.792 | 0.934
x2 = 0.3698 | 0.277 | 0.332 | 0.392 | 0.469 | 0.548 | 0.654 | 0.765 | 0.889 | 1.03 | 1.23
x2 = 0.4772 | 0.337 | 0.404 | 0.479 | 0.573 | 0.677 | 0.806 | 0.943 | 1.1 | 1.28 | 1.51
x2 = 0.6101 | 0.374 | 0.451 | 0.544 | 0.654 | 0.776 | 0.918 | 1.08 | 1.26 | 1.48 | 1.77
x2 = 0.7788 | 0.399 | 0.482 | 0.579 | 0.7 | 0.826 | 0.99 | 1.16 | 1.38 | 1.62 | 1.94

Oc1ccc(Cl)c2cccnc12 + CCOCCO + CCO
solubility (g/100 g solution)
Settings | 278.15 K | 283.15 K | 288.15 K | 293.15 K | 298.15 K | 303.15 K | 308.15 K | 313.15 K | 318.15 K | 323.15 K
x2 = 0.1134 | 1.08 | 1.36 | 1.64 | 1.98 | 2.41 | 2.88 | 3.44 | 4.07 | 4.85 | 5.76
x2 = 0.2542 | 1.61 | 1.9 | 2.21 | 2.69 | 3.17 | 3.76 | 4.43 | 5.22 | 6.15 | 7.04
x2 = 0.434 | 2.17 | 2.57 | 2.99 | 3.57 | 4.14 | 4.77 | 5.59 | 6.57 | 7.64 | 8.85
x2 = 0.6716 | 2.81 | 3.34 | 3.83 | 4.5 | 5.16 | 6.07 | 6.97 | 8.03 | 9.21 | 10.5

Nc1cncc(Cl)n1 + CCCO + O
solubility (g/100 g solution)
Settings | 278.15 K | 283.15 K | 288.15 K | 293.15 K | 298.15 K | 303.15 K | 308.15 K | 313.15 K | 318.15 K | 323.15 K
x2 = 0.03225 | – | – | – | – | – | – | – | – | – | 0.0893
x2 = 0.06974 | – | – | – | – | – | – | – | – | – | 0.208
x2 = 0.1139 | 0.364 | 0.43 | 0.499 | 0.588 | 0.686 | 0.81 | 0.936 | 1.08 | 1.23 | 1.41
x2 = 0.1666 | 0.527 | 0.621 | 0.722 | 0.852 | 0.998 | 1.18 | 1.36 | 1.57 | 1.79 | 2.05
x2 = 0.2307 | 0.638 | 0.75 | 0.883 | 1.04 | 1.25 | 1.48 | 1.73 | 2.01 | 2.31 | 2.65
x2 = 0.3103 | 0.747 | 0.891 | 1.06 | 1.26 | 1.51 | 1.79 | 2.11 | 2.46 | 2.83 | 3.24
x2 = 0.4117 | 0.837 | 1.02 | 1.22 | 1.46 | 1.76 | 2.11 | 2.48 | 2.89 | 3.33 | 3.85
x2 = 0.5454 | 0.928 | 1.11 | 1.31 | 1.61 | 1.94 | 2.37 | 2.82 | 3.33 | 3.85 | 4.44
x2 = 0.7297 | 0.918 | 1.12 | 1.37 | 1.7 | 2.09 | 2.52 | 3.02 | 3.56 | 4.15 | 4.87

CC(=O)OC(c1ccccc1)C(Cl)(Cl)Cl (stereo unspecified) + CC(=O)O + O
solubility (g/100 g solution)
Settings | 288.15 K | 293.15 K | 298.15 K | 303.15 K | 308.15 K | 313.15 K | 318.15 K | 323.15 K | 328.15 K
x2 = 0.4 | 0.229 | 0.34 | 0.495 | 0.65 | 0.966 | 1.43 | 1.81 | 2.64 | 3.12
x2 = 0.5 | 0.758 | 0.967 | 1.23 | 1.62 | 2.27 | 2.97 | 3.85 | 5.28 | 7.16
x2 = 0.6 | 1.45 | 2.06 | 2.67 | 3.47 | 4.47 | 5.57 | 7.52 | 10.1 | 13.4
x2 = 0.7 | 2.88 | 3.73 | 4.74 | 6.03 | 7.75 | 9.86 | 12.5 | 16.9 | 23.4
x2 = 0.8 | 4.78 | 6.15 | 7.58 | 9.47 | 12 | 15.1 | 19.5 | 25.6 | 33.9
x2 = 0.9 | 7.43 | 9.03 | 10.9 | 13.5 | 17 | 21.2 | 26.5 | 33.8 | 42.7
